Measurements reported in ChEMBL document CHEMBL5321233, “Biological activity of 1,2,3-triazole-2-amino-1,4-naphthoquinone derivatives and their evaluation as therapeutic strategy for malaria control” (Eur J Med Chem, 2023).
Calls of active or inactive are those of the source. The rule behind the calls is not given here.

Columns and labels:
[1] = Acute toxicity in Albino Swiss mouse assessed as change in relative weight of liver at 300 mg/kg, po administered as single dose measured after 14 days; assay type: organism-based; conditions: in vivo, 336 h, time 14 day
[2] = Acute toxicity in Albino Swiss mouse assessed as change in urine color at 300 mg/kg, po administered as single dose measured after 14 days; assay type: organism-based; conditions: in vivo, 336 h, time 14 day
[3] = system: Plasmodium berghei; experiment: Antimalarial activity against Plasmodium berghei ANKA infected in Albino Swiss mouse assessed as half-survival time at 30 mg/kg, po administered for 4 consecutive days measured for 30 days (reference value: 16 day); assay type: functional; conditions: time 30 day
[4] = Acute toxicity in Albino Swiss mouse assessed as change in sensory function at 300 mg/kg, po administered as single dose measured after 14 days; assay type: organism-based; conditions: in vivo, 336 h, time 14 day
[5] = Acute toxicity in Albino Swiss mouse assessed as change in defecation at 300 mg/kg, po administered as single dose measured after 14 days; assay type: organism-based; conditions: in vivo, 336 h, time 14 day
[6] = Octanol-water partition coefficient, logP of the compound; assay type: physicochemical
[7] = Acute toxicity in Albino Swiss mouse assessed as signs of pallor at 300 mg/kg, po administered as single dose measured after 14 days; assay type: organism-based; conditions: in vivo, 336 h, time 14 day
[8] = Acute toxicity in Albino Swiss mouse assessed as change in relative weight of kidney at 300 mg/kg, po administered as single dose measured after 14 days; assay type: organism-based; conditions: in vivo, 336 h, time 14 day
[9] = Acute toxicity in Albino Swiss mouse assessed as signs of hyperemia at 300 mg/kg, po administered as single dose measured after 14 days; assay type: organism-based; conditions: in vivo, 336 h, time 14 day
[10] = Acute toxicity in Albino Swiss mouse assessed as signs of cyanosis at 300 mg/kg, po administered as single dose measured after 14 days; assay type: organism-based; conditions: in vivo, 336 h, time 14 day
[11] = Cytotoxicity against African green monkey Vero cells incubated for 24 hrs by MTT assay; assay type: toxicity, cell-based; conditions: chlorocebus sabaeus
[12] = Acute toxicity in Albino Swiss mouse assessed as change in motor function at 300 mg/kg, po administered as single dose measured after 14 days; assay type: organism-based; conditions: in vivo, 336 h, time 14 day
[13] = system: HepG2; experiment: Cytotoxicity against human HepG2 cells incubated for 24 hrs by MTT assay; assay type: functional
[14] = Acute toxicity in Albino Swiss mouse assessed as change in relative weight of spleen at 300 mg/kg, po administered as single dose measured after 14 days; assay type: organism-based; conditions: in vivo, 336 h, time 14 day
[15] = Acute toxicity in Albino Swiss mouse assessed as signs of toxicity at 300 mg/kg, po administered as single dose measured after 14 days; assay type: organism-based; conditions: in vivo, 336 h, time 14 day
[16] = Selectivity index, ratio of CC50 for human HepG2 cells to IC50 for chloroquine-resistant Plasmodium falciparum W2 infected in human erythrocytes; assay type: toxicity, cell-based; conditions: read-out: Ratio CC50/IC50
[17] = Acute toxicity in Albino Swiss mouse assessed as aggressiveness at 300 mg/kg, po administered as single dose measured after 14 days; assay type: organism-based; conditions: in vivo, 336 h, time 14 day
[18] = Selectivity index, ratio of CC50 for African green monkey Vero cells to IC50 for chloroquine-resistant Plasmodium falciparum W2 infected in human erythrocytes; assay type: toxicity, cell-based; conditions: read-out: Ratio CC50/IC50
[19] = Acute toxicity in Albino Swiss mouse assessed as contortions at 300 mg/kg, po administered as single dose measured after 14 days; assay type: organism-based; conditions: in vivo, 336 h, time 14 day
[20] = Acute toxicity in Albino Swiss mouse assessed as change in urination volume at 300 mg/kg, po administered as single dose measured after 14 days; assay type: organism-based; conditions: in vivo, 336 h, time 14 day
[21] = Acute toxicity in Albino Swiss mouse assessed as escape reaction at 300 mg/kg, po administered as single dose measured after 14 days; assay type: organism-based; conditions: in vivo, 336 h, time 14 day
[22] = system: Plasmodium falciparum; experiment: Antimalarial activity against chloroquine-resistant Plasmodium falciparum W2 infected in human erythrocytes assessed as parasite growth inhibition incubated for 48 hrs by geimsa staining based microscopy; assay type: functional, organism-based; conditions: W2, Erythrocyte
[23] = Acute toxicity in Albino Swiss mouse assessed as behavioural toxicity at 300 mg/kg, po administered as single dose measured after 14 days; assay type: organism-based; conditions: in vivo, 336 h, time 14 day
[24] = Hemolytic activity in human red blood cells assessed as hemoglobin release at 250 to 15.6 uM incubated for 60 mins by spectrophotometry; assay type: toxicity, cell-based, Erythrocyte; conditions: dose 250-15.6 µM, read-out: Activity
[25] = Acute toxicity in Albino Swiss mouse assessed as animal mortality at 300 mg/kg, po administered as single dose measured after 14 days; assay type: organism-based; conditions: in vivo, 336 h, time 14 day
[26] = Acute toxicity in Albino Swiss mouse assessed as change in diarrhea at 300 mg/kg, po administered as single dose measured after 14 days; assay type: organism-based; conditions: in vivo, 336 h, time 14 day
[27] = Hemolytic activity in human red blood cells type A assessed as hemoglobin release at 500 to 1000 uM incubated for 60 mins by spectrophotometry; assay type: toxicity, cell-based, Erythrocyte; conditions: dose 500-1000 µM, read-out: Activity
[28] = Toxicity in Albino Swiss mouse infected with Plasmodium berghei ANKA assessed as mortality rate at 30 mg/kg, po administered for 4 consecutive days measured for 14 days relative to control; assay type: organism-based; conditions: in vivo, time 14 day, read-out: Activity
[29] = Acute toxicity in Albino Swiss mouse assessed as pathological changes in kidney at 300 mg/kg, po administered as single dose measured after 14 days by H and E staining based analysis; assay type: organism-based; conditions: in vivo, 336 h, time 14 day
[30] = Acute toxicity in Albino Swiss mouse assessed as pathological lesions in liver at 300 mg/kg, po administered as single dose measured after 14 days by H and E staining based analysis; assay type: organism-based; conditions: in vivo, 336 h, time 14 day
[31] = Acute toxicity in Albino Swiss mouse assessed as macroscopic alterations in liver at 300 mg/kg, po administered as single dose measured after 14 days by H and E staining based analysis; assay type: organism-based; conditions: in vivo, 336 h, time 14 day
[32] = system: Plasmodium falciparum; experiment: Induction of morphological changes in chloroquine-resistant Plasmodium falciparum W2 trophozoites assessed as dense cytoplasm with undefined organelles by TEM analysis; assay type: functional, organism-based
[33] = system: Plasmodium falciparum; experiment: Induction of morphological changes in chloroquine-resistant Plasmodium falciparum W2 trophozoites assessed as loss of membrane integrity by TEM analysis; assay type: functional, organism-based
[34] = system: Plasmodium falciparum; experiment: Induction of morphological changes in chloroquine-resistant Plasmodium falciparum W2 trophozoites assessed as deteriorated food vacuole by TEM analysis; assay type: functional, organism-based
[35] = Acute toxicity in Albino Swiss mouse assessed as pathological damage in spleen at 300 mg/kg, po administered as single dose measured after 14 days by H and E staining based analysis; assay type: organism-based; conditions: in vivo, 336 h, time 14 day
[36] = system: Plasmodium berghei; experiment: Antimalarial activity against Plasmodium berghei ANKA infected in Albino Swiss mouse assessed as reduction in parasitemia at 30 mg/kg, po administered for 4 consecutive days measured after day 7 relative to control; assay type: functional; set-up: scale not given: the % may be the effect or the level left; conditions: time 7 day
[37] = system: Plasmodium falciparum; experiment: Induction of morphological changes in chloroquine-resistant Plasmodium falciparum W2 trophozoites assessed as degraded cytoplasm by TEM analysis relative to control; assay type: functional

Row | SMILES | Activity [1] | Activity [2] | Survival [3] | Activity [4] | Activity [5] | logP [6] | Activity [7] | Activity [8] | Activity [9] | Activity [10] | CC50 at 24 h [11] | Activity [12] | CC50 [13] | Activity [14] | Activity [15] | selectivity ratio [16] | Activity [17] | selectivity ratio [18] | Activity [19] | Activity [20] | also measured
1 | O=C1C=C(NCCn2cc(-c3ccccc3)nn2)C(=O)c2ccccc21 | Non-Toxic | Non-Toxic | 13 days | Non-Toxic | Non-Toxic | 2.67 | Non-Toxic | Non-Toxic | Non-Toxic | Non-Toxic | 116 µM | Non-Toxic | 278 µM | Non-Toxic | Non-Toxic | 343 | Non-Toxic | 143 | Non-Toxic | Non-Toxic | Activity [21]: Non-Toxic; IC50 [22]: 0.81 µM; Activity [23]: Non-Toxic; hemolysis at 1 h [24]: < 40%; Activity [25]: Non-Toxic; Activity [26]: Non-Toxic; hemolysis at 1 h, up to 1000 µM [27]: > 40%
2 | Cc1ccc(-c2cn(CCNC3=CC(=O)c4ccccc4C3=O)nn2)cc1 | Non-Toxic | Non-Toxic | 14 days | Non-Toxic | Non-Toxic | 3.12 | Non-Toxic | Non-Toxic | Non-Toxic | Non-Toxic | 207 µM | Non-Toxic | 104 µM | Non-Toxic | Non-Toxic | 6.88 | Non-Toxic | 13.7 | Non-Toxic | Non-Toxic | mortality at 336 h [28]: 100%; Activity [21]: Non-Toxic; IC50 [22]: 15.1 µM; Activity [23]: Non-Toxic; hemolysis at 1 h [24]: < 40%; Activity [25]: Non-Toxic; Activity [26]: Non-Toxic; hemolysis at 1 h, up to 1000 µM [27]: > 40%
3 | CC(C)(O)c1cn(CCNC2=CC(=O)c3ccccc3C2=O)nn1 | Non-Toxic | Non-Toxic | 14 days | Non-Toxic | Non-Toxic | 1.38 | Non-Toxic | Non-Toxic | Non-Toxic | Non-Toxic | 188 µM | Non-Toxic | 233 µM | Non-Toxic | Non-Toxic | 35.3 | Non-Toxic | 28.5 | Non-Toxic | Non-Toxic | Activity [21]: Non-Toxic; IC50 [22]: 6.6 µM; Activity [23]: Non-Toxic; hemolysis at 1 h [24]: < 40%; Activity [25]: Non-Toxic; Activity [26]: Non-Toxic; hemolysis at 1 h, up to 1000 µM [27]: > 40%
4 | COc1ccc(-c2cn(CCNC3=CC(=O)c4ccccc4C3=O)nn2)cc1 | Non-Toxic | Non-Toxic | 26 days | Non-Toxic | Non-Toxic | 2.72 | Non-Toxic | Non-Toxic | Non-Toxic | Non-Toxic | 401 µM | Non-Toxic | 289 µM | Non-Toxic | Non-Toxic | 68.8 | Non-Toxic | 95.8 | Non-Toxic | Non-Toxic | mortality at 336 h [28]: 20%; Activity [29]: Non-Toxic; Activity [30]: Toxic; Activity [31]: Non-Toxic; Activity [32]: Active; Activity [33]: Active; Activity [34]: Active; Activity [35]: Non-Toxic; Activity [36]: 33%; Activity [21]: Non-Toxic; IC50 [22]: 4.2 µM; Activity [23]: Non-Toxic; hemolysis at 1 h [24]: < 40%; Activity [25]: Non-Toxic; Activity [26]: Non-Toxic; Activity [37]: 100%; hemolysis at 1 h, up to 1000 µM [27]: > 40%
